# pIC50: −log10 of the molar value.
# Tested on: not given
# Experiment: not given
# Conditions: not given
row,SMILES,melting point
1,CCOc1ccc2[nH]c(SCc3ccccc3N)nc2c1.O (hydrate or solvate),87 to 89 °C
2,"CNc1ccccc1C[S+]([O-])c1nc2ccccc2[nH]1.O (centres unmarked) (hydrate or solvate) [Example 32, 2-[(1H-Benzimidazol-2-ylsulfinyl)methyl]-N-methylbenzenamine monohydrate]",117 to 120 °C
3,"Cc1ccc(C[S+]([O-])c2nc3ccccc3[nH]2)c(N)c1C (centres unmarked) (hydrate or solvate) [Example 53, 2-[(1H-Benzimidazol-2-ylsulfinyl)methyl]-5,6-dimethylbenzenamine ¼ hydrate]",160 °C (dec.)
4,"Cc1cccc(CSc2nc3ccccc3[nH]2)c1N [Example 27, 2-[(1H-Benzimidazol-2-ylthio)methyl]-6-methylbenzenamine]",130 to 134 °C
5,"COc1ccc2[nH]c(SCc3cccc(C)c3N)nc2c1 [Example 35, 2-[[(5-methoxy-1H-benzimidazol-2-yl)thio]methyl]-6-methylbenzenamine]",132 to 134 °C
6,"CCOC(=O)c1ccc(N)c(CSc2nc3cc(OC)ccc3[nH]2)c1 [Example 72, Ethyl 4-amino-3-[[(5-methoxy-1H-benzimidazol-2-yl)thio]methyl]benzoate]",140 to 146 °C
7,"Cc1cc2nc([S+]([O-])Cc3ccccc3N)[nH]c2cc1C (centres unmarked) (hydrate or solvate) [Example 10, 2-[[(5,6-Dimethyl-1H-benzimidazol-2-yl)sulfinyl]methyl]benzenamine ¼ hydrate]",179 to 181 °C
8,"CN(C)c1ccccc1CSc1nc2ccccc2[nH]1 [Example 1, 2-[(1H-Benzimidazol-2-ylthio)methyl]-N,N-dimethylbenzenamine]",167 to 170 °C
9,"Nc1cc(Cl)ccc1CSc1nc2ccccc2[nH]1 [Example 17, 2-[(1H-Benzimidazol-2-ylthio)methyl]-5-chlorobenzenamine]",158 to 160.5 °C
10,"CNc1ccccc1CSc1nc2ccccc2[nH]1 [Example 31, 2-[(1H-Benzimidazol-2-ylthio)methyl]-N-methylbenzenamine]",109 to 112 °C
11,"COc1cc(Cl)c(C)c(CSc2nc3ccccc3[nH]2)c1N [Example 58, 2-[(1H-Benzimidazol-2-ylthio)methyl]-4-chloro-6-methoxy-3-methylbenzenamine]",~ 100 °C
12,"Nc1ccc(Cl)cc1CSc1nc2ccccc2[nH]1 [Example 15, 2-[(1H-Benzimidazol-2-ylthio)methyl]-4-chlorobenzenamine]",114 to 118 °C
13,"Cc1cc(C)c(N)c(CSc2nc3ccccc3[nH]2)c1 [Example 29, 2-[(1H-Benzimidazol-2-ylthio)methyl]-4,6-dimethylbenzenamine]",139 to 141 °C
14,"CCOC(=O)c1ccc(N)c(CSc2nc3ccccc3[nH]2)c1 [Example 70, Ethyl 4-amino-3-[(1H-benzimidazol-2-ylthio)methyl]benzoate]",174 to 176 °C
15,"Cc1cccc2[nH]c(SCc3ccccc3N)nc12 [Example 7, 2-[[(4-Methyl-1H-benzimidazol-2-yl)thio]methyl]benzenamine]",125 to 127 °C
16,"Cc1ccc(C)c(C[S+]([O-])c2nc3ccccc3[nH]2)c1N.O (centres unmarked) (hydrate or solvate) [Example 55, 2-[(1H-Benzimidazol-2-ylsulfinyl)methyl]-3,6-dimethylbenzenamine monohydrate]",144 to 145 °C
17,COc1ccc(N)c(CSc2nc3ccccc3[nH]2)c1.Cl.Cl,206 to 208 °C

# Target: T1, (H+/K+)-ATPase (Canis lupus familiaris, UniProt P50996)
# T1 construct: The microsomes retained at the 15%-30% sucrose interface, after centrifugation at 250,000×g for sixty minutes, were used as the source of (H^+/K^+)-ATPase; from tissue; host or cells: gastric glandular mucosa of mongrel dogs (microsomal fraction, lyophilized)
# T1 sequence (P50996 whole entry): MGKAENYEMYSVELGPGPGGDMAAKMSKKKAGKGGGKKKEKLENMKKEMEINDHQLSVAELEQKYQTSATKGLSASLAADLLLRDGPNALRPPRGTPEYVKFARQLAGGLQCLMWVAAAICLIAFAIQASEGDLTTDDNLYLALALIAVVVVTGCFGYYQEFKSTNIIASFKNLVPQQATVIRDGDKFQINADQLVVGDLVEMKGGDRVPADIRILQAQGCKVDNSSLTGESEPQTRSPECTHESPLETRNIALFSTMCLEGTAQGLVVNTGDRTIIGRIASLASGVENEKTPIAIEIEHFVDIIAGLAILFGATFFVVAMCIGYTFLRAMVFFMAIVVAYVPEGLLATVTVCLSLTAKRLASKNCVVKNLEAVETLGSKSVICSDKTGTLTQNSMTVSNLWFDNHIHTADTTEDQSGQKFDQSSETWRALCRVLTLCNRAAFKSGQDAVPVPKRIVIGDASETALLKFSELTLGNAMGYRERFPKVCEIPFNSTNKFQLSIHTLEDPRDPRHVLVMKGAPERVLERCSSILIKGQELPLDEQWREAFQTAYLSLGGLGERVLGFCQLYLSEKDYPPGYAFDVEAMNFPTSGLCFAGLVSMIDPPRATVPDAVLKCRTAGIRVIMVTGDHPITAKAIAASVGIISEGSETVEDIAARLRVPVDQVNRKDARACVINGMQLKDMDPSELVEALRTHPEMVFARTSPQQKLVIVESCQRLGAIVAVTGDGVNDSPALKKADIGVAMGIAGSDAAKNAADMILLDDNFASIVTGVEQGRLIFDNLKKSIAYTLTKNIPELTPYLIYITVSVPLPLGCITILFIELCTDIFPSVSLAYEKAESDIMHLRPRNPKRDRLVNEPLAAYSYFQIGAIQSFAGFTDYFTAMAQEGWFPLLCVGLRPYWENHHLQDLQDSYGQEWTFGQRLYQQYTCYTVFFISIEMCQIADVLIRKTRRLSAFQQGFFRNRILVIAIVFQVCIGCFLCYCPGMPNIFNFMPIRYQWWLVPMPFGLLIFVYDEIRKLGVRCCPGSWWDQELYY
# T1 sequence (P33704 whole entry partner): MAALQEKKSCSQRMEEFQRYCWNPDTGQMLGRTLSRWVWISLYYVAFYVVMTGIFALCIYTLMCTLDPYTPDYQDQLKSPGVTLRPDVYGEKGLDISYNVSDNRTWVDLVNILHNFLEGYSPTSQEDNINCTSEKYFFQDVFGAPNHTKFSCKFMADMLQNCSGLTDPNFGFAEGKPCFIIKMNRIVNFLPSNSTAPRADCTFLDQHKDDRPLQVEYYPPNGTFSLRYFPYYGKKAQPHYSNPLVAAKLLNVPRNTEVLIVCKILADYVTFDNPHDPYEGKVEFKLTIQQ
# Experiment: Inhibition of (H+/K+)-ATPase from canine gastric mucosa (inorganic phosphate release)
# Type: biochemical
# Conditions: canine gastric mucosa microsomes, pH 6.0, 30 min preincubation at 37° C.; read-out: (H+/K+)-ATPase IC50
# Method: Mongrel dogs weighing 15 to 25 kilograms were fasted for twenty-four hours, with water provided ad libitum. The animals were anesthetized with pentobarbital and the stomachs were removed. Subsequent tissue manipulations and subcellular fractionations were performed at 0° C. to 4° C. After the stomachs were cut open and rinsed with tap water, the antral and cardiac regions were removed and the remaining tissue was rinsed three times in saline. The glandular mucosa was removed mechanically, chopped finely in a medium containing 10 mM Tris hydrochloride (pH 7.4) and 250 mM sucrose, and homogenized. The homogenate was centrifuged at 20,000×g for twenty minutes and the pellet discarded. The supernatant was then centrifuged at 150,000×g for ninety minutes and the supernatant discarded. The pellet was resuspended in the Tris-HCl/sucrose medium by homogenization. Part (2 ml) of the resultant microsomal suspension was layered onto a step gradient consisting of 9 ml of 15% sucrose above 12 ml of 30% sucrose, each sucrose solution being buffered with 10 mM Tris hydrochloride (pH 7.4) containing 0.01% sodium azide. The microsomes retained at the 15%-30% sucrose interface, after centrifugation at 250,000×g for sixty minutes, were used as the source of (H^+/K^+)-ATPase. Microsomal preparations were lyophilized, a process that assured potassium ion permiability, and stored at −10° C. until used.
# (H^+/K^+)-ATPase activity for each test compound was determined, in duplicate, by measuring the release of inorganic phosphate, which was assayed according to the method of J. ChandraRajan and L. Klein, Anal. Biochem., 72 , 407 (1976). The (H^+/K^+)-ATPase assay medium consisted of 20 mm mes-Tris (pH 6.0), 5 mM magnesium chloride, 25 mM sucrose, and 4 mM Tris-ATP with or without 20 mM potassium chloride in a total volume of 2 ml. Microsomal suspensions (20 to 60 mcl, containing about 25 mcg protein) were added to the assay medium, without Tris-ATP, and then preincubated with a test compound for thirty minutes at 37° C. The assay was initiated by adding Tris-ATP and the mixture was incubated another thirty minutes at 37° C. A 200-mcl aliquot of the assay mixture was then added to 1.4 ml of a solution consisting of 0.1 M sodium acetate (pH 4.0) and 10% sodium dodecylsulfate, followed by the addition of 200 mcl each of 1% ammonium molybdate and 1% ascorbic acid. At least fifteen minutes later, the optical absorbance at 870 nm (which was proportional to inorganic phosphate concentration up to 100 nmoles per tube, as determined by a standard curve) was obtained. Enzyme activity was linear with incubation time.
# (H^+/K^+)-ATPase activity is represented by the difference between the measured activities in the presence of potassium-ion (K^+-stimulated) and in the absence of potassium ion (basal).
row,SMILES,pIC50
1,"Cc1ccc(C)c(C[S+]([O-])c2nc3ccccc3[nH]2)c1N (centres unmarked) [Example 55, 2-[(1H-Benzimidazol-2-ylsulfinyl)methyl]-3,6-dimethylbenzenamine monohydrate]",6.09
2,"COc1cc2nc([S+]([O-])Cc3cccc(N)n3)[nH]c2cc1OC (centres unmarked) [Example 99, 6-[[(5,6-Dimethoxy-1H-benzimidazol-2-yl)-sulfinyl]methyl]-2-pyridinamine ¼ hydrate]",4.63
3,"Cc1cc(N)c(C[S+]([O-])c2nc3ccccc3[nH]2)c(C)c1C (centres unmarked) [Example 77, 2-[(1H-Benzimidazol-2-ylsulfinyl)methyl]-3,4,5-trimethylbenzenamine hemihydrate]",4.80
4,"Cc1cccc2[nH]c([S+]([O-])Cc3cccc(N)n3)nc12 (centres unmarked) [Example 87, 6-[[(4-Methyl-1H-benzimidazol-2-yl)-sulfinyl]methyl]-2-pyridinamine]",5.66
5,"CCOc1ccc2[nH]c([S+]([O-])Cc3cccc(N)n3)nc2c1 (centres unmarked) [Example 97, 6-[[(5-Ethoxy-1H-benzimidazol-2-yl)-sulfinyl]methyl]-2-pyridinamine]",5.51
6,COc1cccc(C[S+]([O-])c2nc3cc(C(F)(F)F)ccc3[nH]2)c1N (centres unmarked) [Example 67],5.07
7,"CC(C)(C)CNc1cccc(C[S+]([O-])c2nc3ccccc3[nH]2)n1 (centres unmarked) [Example 107, 6-[(1H-Benzimidazol-2-ylsulfinyl)methyl]-N-(2,2-dimethylpropyl)-2-pyridinamine ¼ hydrate]",5.04
8,"Nc1cccc(C[S+]([O-])c2nc3cc(Cl)ccc3[nH]2)n1 (centres unmarked) [Example 93, 6-[[(5-Chloro-1H-benzimidazol-2-yl)-sulfinyl]methyl]-2-pyridinamine]",5.16
9,"Nc1cccc(C[S+]([O-])c2nc3cc(CO)ccc3[nH]2)n1 (centres unmarked) [Example 105, 6-[[[5-(Hydroxymethyl)-1H-benzimidazol-2-yl]sulfinyl]methyl]-2-pyridinamine ¼ hydrate]",5.02
10,"Cc1cc(C)c2nc([S+]([O-])Cc3cccc(N)n3)[nH]c2c1 (centres unmarked) [Example 103, 6-[[(4,6-Dimethyl-1H-benzimidazol-2-yl)-sulfinyl]methyl]-2-pyridinamine]",5.74
11,"Cc1cc2nc([S+]([O-])Cc3cccc(N)n3)[nH]c2cc1C (centres unmarked) [Example 101, 6-[[(5,6-Dimethyl-1H-benzimidazol-2-yl)-sulfinyl]methyl]-2-pyridinamine]",6.14
12,Cc1ccc(C)c(C[S+]([O-])c2nc3cc(C(F)(F)F)ccc3[nH]2)c1N (centres unmarked) [Example 65],5.82
13,COc1cc2nc([S+]([O-])Cc3cc(C)ccc3N)[nH]c2cc1OC (centres unmarked) [Example 75],3.92
14,"Nc1cccc(C[S+]([O-])c2nc3cc(C(F)(F)F)ccc3[nH]2)n1 (centres unmarked) [Example 95, 6-[[[5-(Trifluoromethyl)-1H-benzimidazol-2-yl]sulfinyl]methyl]-2-pyridinamine]",5.16
15,"Cc1ccc2[nH]c([S+]([O-])Cc3cccc(N)n3)nc2c1 (centres unmarked) [Example 89, 6-[[(5-Methyl-1H-benzimidazol-2-yl)-sulfinyl]methyl]-2-pyridinamine]",5.77
16,"Cc1cc(C)c(N)c(C[S+]([O-])c2nc3ccccc3[nH]2)c1 (centres unmarked) [Example 30, 2-[(1H-Benzimidazol-2-ylsulfinyl)methyl]-4,6-dimethylbenzenamine hemihydrate]",6.07
17,"Nc1ccc(C[S+]([O-])c2nc3ccccc3[nH]2)cn1 (centres unmarked) [Example 111, 5-[(1H-Benzimidazol-2-ylsulfinyl)methyl]-2-pyridinamine ¼ hydrate]",4.46
18,"Cc1ccc2[nH]c([S+]([O-])Cc3ccc(C)c(C)c3N)nc2c1 (centres unmarked) [Example 63, 2-[[(5-Methyl-1H-benzimidazol-2-yl)sulfinyl]-methyl]-5,6-dimethylbenzenamine hemihydrate]",6.15
